From patent publication US10646488B2 (Araxes Pharma LLC, priority 2016, dated 2020)

Biological target: T1, KRAS G12C 1-169, his-tagged protein, GDP-loaded (Homo sapiens, UniProt P01116, G12C)
T1 construct: KRAS G12C 1-169, his-tagged protein, GDP-loaded
Assay: Covalent binding (% modification) to KRAS G12C by mass spectrometry; further: test concentration or dose not given here
Conditions: covalent binding to KRAS G12C after a three minute incubation period

SMILES: C=CC(=O)N1C[C@H](C)N(c2nc(OCCn3ccnc3)nc3c(F)c(-c4c(O)cccc4F)c(Cl)cc23)C[C@H]1C [Compound 232, 1-((2R,5S)-4-(2-(2-(1H-imidazol-1-yl)ethoxy)-6-chloro-8-fluoro-7-(2-fluoro-6-hydroxyphenyl)quinazolin-4-yl)-2,5-dimethyl-piperazin-1-yl) prop-2-en-1-one]
- Binding %: ++ (++ indicates binding activity from 50 to 90%)
